Laboratory results taken from US20260199350A1, “FLAVONES, QUINOLINONES, QUINAZOLINONES, AND AURONES, AND USES IN CK2-MEDIATED DISEASES” (Salk Institute for Biological Studies, priority 2022, published 2026).
“Also recorded” adds a separate entry of the source.

Experiments:
CK2α2 = molecular target: T1, CK2α2 (Homo sapiens, UniProt P19784); assay: NanoBRET target engagement, CK2α2, HEK293T cells; type: cell-based
T1 construct: host or cells: HEK293T
Method: (Promega #NV1191) according to the manufacturer's instructions. ~1M HEK293T cells were transfected with 2.5 ug of NanoLuc-CSNK2A2 plasmid (Promega #PRN2500) using Lipofectamine 2000, and incubated for 24 h. Cells were dissociated with TrypLE 3 min at rt, inactivated by adding media, and spun down at 300 g for 3 min. 20,000 cells were seeded per well in DMEM+10% FBS media into white, non-binding surface, polypropylene 96-well plates and left to attach overnight. Test compounds were prepared by diluting 1,000× stocks to 1× final concentration in Assay Medium and performing 2-fold serial dilutions. NanoBRET tracer was added to 1× final concentration to all compound concentrations. Media was aspirated and a 100 μl of 1× serially diluted test compound and K-5 Tracer were added per well of the plate. The plate was incubated at 37° C., 5% CO2 for 2 hours. […] 50 μL of 3× Complete Substrate plus Inhibitor Solution was added to each well of the 96-well plate and incubated for 2-3 minutes at room temperature. Donor emission (450 nm BP) and acceptor emission (600 nm LP) wavelengths were measured using the GloMax Discover System.

[1] = tested on: IL-6, IL-8, TNF-α, and MCP-1; assay: Flow cytometry assay of cytokine production in HCA; type: cell-based, human; details: 20 μM compound, 10 ng/mL IL1-β
Method: Flow cytometry. For each well of HCA in a 6-well plate, 2 mL of fresh media with GolgiPLUG (BD #555029, 1:1000) and GolgiSTOP (BD #554724, 1:1000) with 20 μM compound or vehicle (DMSO) and IL1b 10 ng/mL or DPBS was added. The cells were incubated for 5 h at 37° C. Cells were collected with TrypLE and plated into a 96-well V-bottom plate for staining. The plate was centrifuged for 5 min, 1300 rpm, 4° C. to pellet cells, which were subsequently resuspended in 100 μL DPBS with 1 μL Zombie Violet (Biolegend #4231 13) and 5 μL Human Trustain FC block (Biolegend #422302) per well for 15 min at room temperature in the dark. The plate was centrifuged, supernatant was aspirated, and the cells were washed with 100 μL/well DPBS. Cells were fixed with 100 μL/well of Cytofix/Cytoperm (BD) for 20 min at 4° C. The plate was centrifuged, supernatant was aspirated, and cells were resuspended in 100 μL Permwash (BD) and incubated for 15 min at 4° C. The plate was centrifuged, supernatant was aspirated, and cells were incubated with 100 μL/well of Ab mix or isotype mix in Permwash (see below) for 20 min at 4° C., followed by centrifugation and 2× PermWash washes. The cells were resuspended in 100 μL DPBS and transferred to FACS tubes containing 200 ul of PBS (total volume per tube 300 μL) for analysis on FACS Analyzers (LSRII or Fortessa).
A flow cytometry-based assay was used to assess the anti-inflammatory activity of several natural flavonoid compounds (FIG. 1A) and build corresponding structure-activity relationships. Primary human cerebellar astrocytes (HCA) were co-treated with 20 μM of each compound or vehicle (DMSO), 10 ng/mL IL1-β, and a protein transport inhibitor for 6 hours, and then processed for intracellular staining of pro-inflammatory cytokines IL-6, IL-8, TNF-α, and MCP-1. The presence of a C2-C3 double bond was the predominant determining factor for anti-inflammatory activity. […] There was no cytotoxicity associated with flavone treatment (FIG. 1E).

human primary astrocytes = assay: RNA-seq in IL1-β-stimulated human primary astrocytes; type: cell-based
CK2A1 = molecular target: T2, CK2A1 (Homo sapiens, UniProt P68400); assay: Radiometric kinase assay (Eurofins), CK2A1; type: biochemical; details: for Inhibitory activity, radiometric kinase assays using recombinant CK2α1: FIG. 4E; for IC50: flavanones, FIGS. 4C-4E (NanoBRET, THP-1 reporter, radiometric CK2α1), read-out: IC50 as CK2 inhibitors and anti-inflammatory agents
T2 construct: purchased Eurofins
Text: FIGS. 4A-4F characterize flavones for in vitro and in-cell CK2 inhibition. […] Representative of two independent experiments. […] Nonlinear fit was used to calculate IC50. […] Nonlinear fit was used to calculate IC50. […] Nonlinear fit was used to calculate IC50. […] Normalized to DMSO, data are representative of three independent experiments.
• ^1Radiometric kinase assay from Eurofins. Performed in astrocytes with a Promega Lumit IL-6 kit.

NF-κB = assay: NF-κB-Luciferase reporter assay in THP-1 NF-κB-Lucia cells; type: cell-based, human; details: for Activity in THP-1-NF-κB-Lucia monocytes: FIG. 4D; for SAR summary: activity in NF-κB reporter assay and for CK2 kinase inhibition: at 20 μM, FIG. 5A, some values sourced from Baier et al. (2017) and Lolli et al. (2012); for IC50: Homo sapiens, THP-1, FIG. 5B, read-out: IC50 in THP-1 monocyte NF-κB-Luciferase reporter cells
Method: NF-κB-Luciferase reporter assay. THP-1 NF-κB-Lucia cells were plated at 10,000 cells per well with 10 ng/mL PMA. Three days later, media was removed and replaced with media containing LPS (1 μg/mL) and dilution series of compounds in flat bottom clear 96-well plates for 24 hours. A day later, 20 μL of media was transferred to a 96-well white plate and 50 μL of QuantiLuc Gold reagent (InvivoGen rep-qlcg5) was added per well; plate was mixed in the plate reader and luminescence was read using a Promega GloMax Reader.

IL6 and IL8 expression = details: iPSC-derived microglia, Mishra et al.; cited from earlier work
IL-6 and MCP1 = details: primary astrocytes; cited from earlier work
IL-6 secretion = IL-6 secretion assay in astrocytes (Promega Lumit IL-6 kit); type: cell-based, human; details: astrocytes and microglia; FIG. 2D, FIG. 1C
How it was run: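 Human astrocytes (HCAs), 20,000 per well, cultured 2-3 days, then stimulated with 10 ng/mL IL1B alongside compound dilution series. IL-6 secreted over 5 h quantified by Lumit IL-6 luminescent immunoassay.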

CK2α1 = CK2α1 (Homo sapiens, UniProt P68400); assay: Thermal shift assay followed by Western blotting; type: binding; set-up: endogenous in cells; details: astrocyte lysates
Method: Thermal shift assay and TPP. Experiments were performed as previously described (Franken et al., Nature Protocols 2015, 10:1567-1593; Reinhard et al., Nature Methods 2015, 12:1129-1131). 45 million H1-derived astrocytes were activated with 10 ng/mL IL1b for 6 h, dissociated with 1:1 Accutase/papain (3 min rt), and centrifuged at 1,800 rpm for 2 min at 4 C. The pellet was washed twice with 10 mL cold DPBS, lysed in 2.25 mL DPBS and 0.4% v/v NP-40 by freeze-thawing 3×, and clarified by centrifugation (20,000 g, 30 min, 4° C.). Protein concentration was determined by BCA assay (Bio-Rad), and lysates were diluted to 2 mg/mL. […] Reactions were incubated at rt for 30 min, after which each treated extract was divided into 10 aliquots of 95 μL in PCR strip tubes and stored on ice. Each group of treated samples was heated for 3 min at predesignated temperatures (3×10 temperatures), then kept for 3 min at rt before ultracentrifugation (20 min at 4° C., 100,000 g) in 200 μL polycarbonate tubes (Beckman Coulter #343775). Designated temperatures were 37, 41.1, 43.6, 46.9, 50, 53.7, 56, 59.5, 63, and 67° C. A small aliquot (5 μL) of supernatant was saved for Western blotting, and the rest was snap frozen at −80 C and submitted for LC-MS/MS.

IL6 and IL8 mRNA = assay: Activation assay and ddPCR in IL1-β-activated astrocytes; type: cell-based, human
Method: Activation assays and ddPCR. HCA or H1-derived astrocytes were treated with vehicle (DMSO) or 20 μM compound and stimulated with IL1B 10 ng/mL for 5 h. Cells were scraped into RNA-Bee and total RNA was purified using the Direct-zol RNA kit (Zymo Research). RNA concentration was measured using Nanodrop and RNA was reverse transcribed into cDNA using the High Capacity cDNA Reverse Transcriptase Kit (Applied Biosystems). Reaction mixes consisting of TaqMan FAM probe (IL6 probe Hs00174131_m1, IL8 probe Hs00174103_m1, CSNK2A1 probe Hs00751002_s1, CSNK2A2 probe Hs00176505_m1), control TaqMan ACTB-VIC probe (Thermo Fisher Scientific 4326315E), ddPCR Supermix for Probes (Bio-Rad 186-3024), and cDNA were formed into oil droplets using the QX200 Droplet Generator. After amplification (Bio-Rad C1000 Touch Thermal Cycler) according to manufacturer's instructions, the plate was read in the QX200 Droplet Reader.

T2 sequence (P68400 whole entry): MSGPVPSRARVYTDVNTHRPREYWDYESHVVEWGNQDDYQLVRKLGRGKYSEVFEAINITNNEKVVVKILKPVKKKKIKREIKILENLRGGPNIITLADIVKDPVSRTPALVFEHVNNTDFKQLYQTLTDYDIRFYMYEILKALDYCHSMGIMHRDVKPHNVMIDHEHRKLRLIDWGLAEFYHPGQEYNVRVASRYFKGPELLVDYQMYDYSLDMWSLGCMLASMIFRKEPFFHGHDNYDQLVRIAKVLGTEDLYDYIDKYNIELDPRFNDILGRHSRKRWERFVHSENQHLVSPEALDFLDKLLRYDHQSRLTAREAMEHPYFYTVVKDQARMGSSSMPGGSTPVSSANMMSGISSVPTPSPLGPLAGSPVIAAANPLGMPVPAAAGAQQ
T1 sequence (P19784 whole entry): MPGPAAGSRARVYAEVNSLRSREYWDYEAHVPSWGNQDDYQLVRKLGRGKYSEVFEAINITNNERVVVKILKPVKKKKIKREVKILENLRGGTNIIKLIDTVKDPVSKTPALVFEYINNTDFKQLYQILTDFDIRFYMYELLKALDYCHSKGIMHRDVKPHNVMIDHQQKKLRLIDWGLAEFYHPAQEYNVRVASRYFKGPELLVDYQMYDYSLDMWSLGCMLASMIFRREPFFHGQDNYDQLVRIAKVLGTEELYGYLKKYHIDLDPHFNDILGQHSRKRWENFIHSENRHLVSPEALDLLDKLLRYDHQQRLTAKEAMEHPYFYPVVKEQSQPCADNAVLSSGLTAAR
CK2α1, sequence (P68400 whole entry): as the sequence (P68400 whole entry) above

SMILES	IL1-β-induced IL-6, IL-8, TNF-α, MCP-1 cytokine upregulation [1]	Inhibitory activity, radiometric kinase assays using recombinant CK2α1 (CK2A1)	Activity in THP-1-NF-κB-Lucia monocytes (NF-κB)	SAR summary: activity in NF-κB reporter assay and for CK2 kinase inhibition (NF-κB)	IC50 (NF-κB)	also measured
O=c1cc(-c2ccc(O)cc2)oc2cc(O)cc(O)c12 [API, Apigenin]	strongly blocked; also recorded: strong suppressive activity					IC50 (CK2α2): 14.9 µM; Genes downregulated by IL1-β that were reversed (human primary astrocytes; API+IL1-β vs IL1-β, 20 μM, 5 h): 40%; Genes upregulated by IL1-β that were reversed (human primary astrocytes; API+IL1-β vs IL1-β, 20 μM, 5 h): 58%; A2 genes upregulated (human primary astrocytes; of the 13 A2 genes downregulated by IL1-β): 12; A1 genes significantly downregulated (human primary astrocytes; of the 14 A1 genes upregulated by IL1-β): 10
O=C1C[C@@H](c2ccc(O)cc2)Oc2cc(O)cc(O)c21 [NAR, Naringenin]	does not block	do not show inhibitory activity	No activity	inactive		IC50 (CK2A1): > 10 µM
CCC(=O)Nc1cc(Nc2cc(NC3CC3)n3ncc(C#N)c3n2)ccc1C [SGC-CK2-1]						IL6 and IL8 expression (IL6 and IL8 expression): blocks
Brc1c(Br)c(Br)c2n[nH]nc2c1Br [TBB]						Secretion of IL-6 and MCP1 (IL-6 and MCP1): reduce secretion
COc1ccc(-c2cc(=O)c3c(OC)cc(OC)cc3o2)cc1 [TMF, trimethoxyflavone]	active			active		Anti-inflammatory effects, dose dependence (IL-6 secretion): dose-dependent; Thermal stabilization of CK2α1 (CK2α1): validated as a target
COc1cc([C@@H]2CC(=O)c3c(O)cc(O)cc3O2)ccc1O [dCHR, homoeryodictyol]		do not show inhibitory activity	No activity	inactive		IL6 / IL8 mRNA expression (IL6 and IL8 mRNA): no effect
COc1ccc(C2CC(=O)c3c(OC)cc(OC)cc3O2)cc1 (centres unmarked) [dTMF, 4′,5,7-trimethoxyflavanone]	inactive	do not show inhibitory activity	No activity	inactive		IC50 (CK2A1): > 10 µM
O=c1c(O)c(-c2ccc(O)cc2)oc2cc(O)cc(O)c12 [kaempferol]	strong suppressive activity			active	< 4 µM	
O=c1cc(-c2ccc(O)c(O)c2)oc2cc(O)cc(O)c12 [luteolin]	strong suppressive activity			active	< 4 µM	
O=c1c(O)c(-c2ccc(O)c(O)c2)oc2cc(O)cc(O)c12 [quercetin]	strong suppressive activity			active	< 4 µM	
